In brackets after ≈: the same amount, converted by molar mass.
Test system: not listed separately
Assay: Antioxidant activity assessed as DPPH radical scavenging activity incubated for 20 mins by spectrophotometric method
Assay type: functional

**Q.** Which IC50 does the source give for `Cc1cc(Cc2cc(C)c(O)cc2C(C)C)c(C(C)C)cc1O` here?
**A.** 122 µg/mL (≈ 390 µM)

**Q.** For `Cc1ccc(C(C)C)cc1OCC(=O)N/N=C/c1c(C(C)C)ccc(C)c1O`, which IC50 is on record?
**A.** 0.16 µg/mL (≈ 0.418 µM)

**Q.** With `Cc1cc(CO)c(C(C)C)cc1O` as the compound, how does the IC50 read?
**A.** 156 µg/mL (≈ 865 µM)

**Q.** For `Cc1ccc(C(C)C)cc1O` [CARVACROL], which IC50 is on record?
**A.** 267 µg/mL (≈ 1780 µM)

Test system: Salmonella enteritidis
Assay: Antibacterial activity against Salmonella enterica subsp. enterica serovar Enteritidis assessed as reduction in bacterial growth inhibition
Assay type: functional

**Q.** For `CCCCCCCCCCCC(=O)Oc1cc(C(C)C)ccc1C`, which MIC is on record?
**A.** >10 %v/v

**Q.** With `Cc1cc(S(=O)(=O)[O-])c(C(C)C)cc1O.[K+]` as the compound, how does the MIC read?
**A.** 1.25 %v/v

**Q.** Which MIC does the source give for `Cc1cc(S(=O)(=O)O)c(C(C)C)cc1O` here?
**A.** 0.37 %v/v

**Q.** Which MIC does the source give for `Cc1ccc(C(C)C)cc1O` [CARVACROL] here?
**A.** <0.09 %v/v

Test system: Escherichia coli
Assay: Antibacterial activity against Escherichia coli assessed as reduction in bacterial growth incubated for 24 hrs by Mueller-Hinton agar based analysis
Assay type: functional

**Q.** With `CC(=O)N[C@@H](CS)C(=O)Oc1cc(C(C)C)ccc1C` as the compound, how does the MIC read?
**A.** 10 µg/mL (≈ 33.9 µM)

**Q.** Which MIC does the source give for `C=CCSC[C@H](NC(C)=O)C(=O)Oc1cc(C(C)C)ccc1C` here?
**A.** 2.5 µg/mL (≈ 7.45 µM)

**Q.** With `CSC[C@H](NC(C)=O)C(=O)Oc1cc(C(C)C)ccc1C` as the compound, how does the MIC read?
**A.** 10 µg/mL (≈ 32.3 µM)

**Q.** For `Cc1ccc(C(C)C)cc1OC(=O)CCCC[C@@H]1CCSS1`, which MIC is on record?
**A.** 5 µg/mL (≈ 14.8 µM)

**Q.** With `C#CCSC[C@H](NC(C)=O)C(=O)Oc1cc(C(C)C)ccc1C` as the compound, how does the MIC read?
**A.** 10 µg/mL (≈ 30 µM)

**Q.** For `CCSC[C@H](NC(C)=O)C(=O)Oc1cc(C(C)C)ccc1C`, which MIC is on record?
**A.** 10 µg/mL (≈ 30.9 µM)

**Q.** With `Cc1ccc(C(C)C)cc1OC(=O)[C@@H]1CSC(=O)N1` as the compound, how does the MIC read?
**A.** 10 µg/mL (≈ 35.8 µM)

**Q.** Which MIC does the source give for `Cc1ccc(C(C)C)cc1OC(=O)[C@@H]1CSCN1C(=O)C(F)(F)F` here?
**A.** 5 µg/mL (≈ 13.8 µM)

**Q.** Which MIC does the source give for `C[Se]CC[C@H](NC(C)=O)C(=O)Oc1cc(C(C)C)ccc1C` here?
**A.** 5 µg/mL (≈ 13.5 µM)

**Q.** Which MIC does the source give for `CSCC[C@H](NC(C)=O)C(=O)Oc1cc(C(C)C)ccc1C` here?
**A.** 10 µg/mL (≈ 30.9 µM)

**Q.** Which MIC does the source give for `Cc1ccc(C(C)C)cc1O` [CARVACROL] here?
**A.** 0.6 µg/mL (≈ 3.99 µM)

Test system: Candida albicans
Assay: Antifungal activity against Candida albicans assessed as reduction in fungal growth incubated for 24 hrs by broth microdilution method
Assay type: functional

**Q.** With `Cc1ccc(C(C)C)cc1O` [CARVACROL] as the compound, how does the MIC read?
**A.** 256 µg/mL (≈ 1700 µM)

Test system: Escherichia coli
Assay: Antibacterial activity against Escherichia coli assessed as reduction in bacterial growth inhibition
Assay type: functional

**Q.** Which MIC does the source give for `CCCCCCCCCCCC(=O)Oc1cc(C(C)C)ccc1C` here?
**A.** >10 %v/v

**Q.** For `Cc1cc(S(=O)(=O)[O-])c(C(C)C)cc1O.[K+]`, which MIC is on record?
**A.** 5 %v/v

**Q.** For `Cc1cc(S(=O)(=O)O)c(C(C)C)cc1O`, which MIC is on record?
**A.** 0.75 %v/v

**Q.** Which MIC does the source give for `Cc1ccc(C(C)C)cc1O` [CARVACROL] here?
**A.** <0.09 %v/v

Test system: Staphylococcus aureus
Assay: Antimicrobial activity against Staphylococcus aureus […] assessed as reduction in bacterial growth incubated for 24 hrs by Mueller-Hinton agar based analysis
Assay type: functional

**Q.** For `CC(=O)N[C@@H](CS)C(=O)Oc1cc(C(C)C)ccc1C`, which MIC is on record?
**A.** 10 µg/mL (≈ 33.9 µM)

**Q.** For `C=CCSC[C@H](NC(C)=O)C(=O)Oc1cc(C(C)C)ccc1C`, which MIC is on record?
**A.** 2.5 µg/mL (≈ 7.45 µM)

**Q.** Which MIC does the source give for `CSC[C@H](NC(C)=O)C(=O)Oc1cc(C(C)C)ccc1C` here?
**A.** 10 µg/mL (≈ 32.3 µM)

**Q.** With `Cc1ccc(C(C)C)cc1OC(=O)CCCC[C@@H]1CCSS1` as the compound, how does the MIC read?
**A.** 10 µg/mL (≈ 29.5 µM)

**Q.** Which MIC does the source give for `C#CCSC[C@H](NC(C)=O)C(=O)Oc1cc(C(C)C)ccc1C` here?
**A.** 10 µg/mL (≈ 30 µM)

**Q.** For `CCSC[C@H](NC(C)=O)C(=O)Oc1cc(C(C)C)ccc1C`, which MIC is on record?
**A.** 10 µg/mL (≈ 30.9 µM)

**Q.** Which MIC does the source give for `Cc1ccc(C(C)C)cc1OC(=O)[C@@H]1CSC(=O)N1` here?
**A.** 10 µg/mL (≈ 35.8 µM)

**Q.** For `Cc1ccc(C(C)C)cc1OC(=O)[C@@H]1CSCN1C(=O)C(F)(F)F`, which MIC is on record?
**A.** 5 µg/mL (≈ 13.8 µM)

**Q.** For `C[Se]CC[C@H](NC(C)=O)C(=O)Oc1cc(C(C)C)ccc1C`, which MIC is on record?
**A.** 10 µg/mL (≈ 27 µM)

**Q.** Which MIC does the source give for `CSCC[C@H](NC(C)=O)C(=O)Oc1cc(C(C)C)ccc1C` here?
**A.** 10 µg/mL (≈ 30.9 µM)

**Q.** For `Cc1ccc(C(C)C)cc1O` [CARVACROL], which MIC is on record?
**A.** 0.6 µg/mL (≈ 3.99 µM)

Target: Cholinesterase (Homo sapiens, UniProt P06276)
Assay: Inhibition of human BChE using butyrylthiocholine iodide as substrate incubated for 15 mins by spectrophotometric Ellman's method

Chain of Cholinesterase (P06276 whole entry): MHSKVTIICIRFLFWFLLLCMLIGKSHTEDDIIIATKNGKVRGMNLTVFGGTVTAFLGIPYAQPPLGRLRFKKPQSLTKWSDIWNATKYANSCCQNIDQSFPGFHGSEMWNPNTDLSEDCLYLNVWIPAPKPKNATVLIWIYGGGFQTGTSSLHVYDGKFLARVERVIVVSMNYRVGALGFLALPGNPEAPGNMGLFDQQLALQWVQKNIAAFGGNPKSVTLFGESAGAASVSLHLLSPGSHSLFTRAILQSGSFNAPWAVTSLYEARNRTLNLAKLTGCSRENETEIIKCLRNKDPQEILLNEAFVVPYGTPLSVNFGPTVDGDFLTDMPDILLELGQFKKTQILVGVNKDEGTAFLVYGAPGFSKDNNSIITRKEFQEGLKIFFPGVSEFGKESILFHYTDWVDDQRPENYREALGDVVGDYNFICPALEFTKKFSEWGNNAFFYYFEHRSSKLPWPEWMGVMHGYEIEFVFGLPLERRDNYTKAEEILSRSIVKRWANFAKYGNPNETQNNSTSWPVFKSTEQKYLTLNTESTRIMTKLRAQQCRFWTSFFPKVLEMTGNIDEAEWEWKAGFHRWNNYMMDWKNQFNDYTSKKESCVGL

**Q.** Which IC50 does the source give for `Cc1ccc(C(C)C)cc1OCC(=O)N(C(C)C)C(C)C` here?
**A.** 50 nM

Test system: Proteus vulgaris
Assay: Antimicrobial activity against Proteus vulgaris NCIM 2813 assessed as zone of inhibition incubated for 24 hrs by agar diffusion method
Assay type: functional

**Q.** Which “inhibition zone (IZ)” value does the source give for `Cc1ccc(C(C)C)cc1O` [CARVACROL] here?
**A.** 7 mm

Test system: Salmonella typhimurium
Assay: Antibacterial activity against Salmonella typhimurium DT104 assessed as reduction in bacterial growth inhibition
Assay type: functional, Salmonella enterica subsp. enterica serovar Typhimurium

**Q.** Which MIC does the source give for `CCCCCCCCCCCC(=O)Oc1cc(C(C)C)ccc1C` here?
**A.** >10 %v/v

**Q.** Which MIC does the source give for `Cc1cc(S(=O)(=O)[O-])c(C(C)C)cc1O.[K+]` here?
**A.** 1.25 %v/v

**Q.** With `Cc1cc(S(=O)(=O)O)c(C(C)C)cc1O` as the compound, how does the MIC read?
**A.** 0.75 %v/v

**Q.** For `Cc1ccc(C(C)C)cc1O` [CARVACROL], which MIC is on record?
**A.** 0.37 %v/v

Test system: Candida albicans
Assay: Fungicidal activity against Candida albicans assessed as reduction in fungal growth measured after 48 hrs by CLSI protocol based microdilution method
Assay type: functional

**Q.** With `Cc1ccc(C(C)C)cc1O` [CARVACROL] as the compound, how does the MFC read?
**A.** 512 µg/mL (≈ 3410 µM)

Test system: Bacillus subtilis
Assay: Antibacterial activity against Bacillus subtilis assessed as zone of inhibition
Assay type: functional

**Q.** With `Cc1ccc(C(C)C)cc1O` [CARVACROL] as the compound, how does the “inhibition zone (IZ)” value read?
**A.** 13 mm

Test system: Staphylococcus epidermidis
Assay: Antimicrobial activity against Staphylococcus epidermidis ATCC 12228 assessed as reduction in bacterial growth incubated for 24 hrs by Mueller-Hinton agar based analysis
Assay type: functional

**Q.** For `CC(=O)N[C@@H](CS)C(=O)Oc1cc(C(C)C)ccc1C`, which MIC is on record?
**A.** 5 µg/mL (≈ 16.9 µM)

**Q.** For `C=CCSC[C@H](NC(C)=O)C(=O)Oc1cc(C(C)C)ccc1C`, which MIC is on record?
**A.** 2.5 µg/mL (≈ 7.45 µM)

**Q.** Which MIC does the source give for `CSC[C@H](NC(C)=O)C(=O)Oc1cc(C(C)C)ccc1C` here?
**A.** 2.5 µg/mL (≈ 8.08 µM)

**Q.** Which MIC does the source give for `Cc1ccc(C(C)C)cc1OC(=O)CCCC[C@@H]1CCSS1` here?
**A.** 10 µg/mL (≈ 29.5 µM)

**Q.** With `C#CCSC[C@H](NC(C)=O)C(=O)Oc1cc(C(C)C)ccc1C` as the compound, how does the MIC read?
**A.** 5 µg/mL (≈ 15 µM)

**Q.** For `CCSC[C@H](NC(C)=O)C(=O)Oc1cc(C(C)C)ccc1C`, which MIC is on record?
**A.** 10 µg/mL (≈ 30.9 µM)

**Q.** For `Cc1ccc(C(C)C)cc1OC(=O)[C@@H]1CSC(=O)N1`, which MIC is on record?
**A.** 10 µg/mL (≈ 35.8 µM)

**Q.** With `Cc1ccc(C(C)C)cc1OC(=O)[C@@H]1CSCN1C(=O)C(F)(F)F` as the compound, how does the MIC read?
**A.** 2.5 µg/mL (≈ 6.92 µM)

**Q.** For `C[Se]CC[C@H](NC(C)=O)C(=O)Oc1cc(C(C)C)ccc1C`, which MIC is on record?
**A.** 5 µg/mL (≈ 13.5 µM)

**Q.** With `CSCC[C@H](NC(C)=O)C(=O)Oc1cc(C(C)C)ccc1C` as the compound, how does the MIC read?
**A.** 10 µg/mL (≈ 30.9 µM)

**Q.** With `Cc1ccc(C(C)C)cc1O` [CARVACROL] as the compound, how does the MIC read?
**A.** 0.3 µg/mL (≈ 2 µM)

Target: Acetylcholinesterase (Homo sapiens, UniProt P22303)
Assay: Inhibition of AChE (unknown origin)

Chain of Acetylcholinesterase (P22303 whole entry): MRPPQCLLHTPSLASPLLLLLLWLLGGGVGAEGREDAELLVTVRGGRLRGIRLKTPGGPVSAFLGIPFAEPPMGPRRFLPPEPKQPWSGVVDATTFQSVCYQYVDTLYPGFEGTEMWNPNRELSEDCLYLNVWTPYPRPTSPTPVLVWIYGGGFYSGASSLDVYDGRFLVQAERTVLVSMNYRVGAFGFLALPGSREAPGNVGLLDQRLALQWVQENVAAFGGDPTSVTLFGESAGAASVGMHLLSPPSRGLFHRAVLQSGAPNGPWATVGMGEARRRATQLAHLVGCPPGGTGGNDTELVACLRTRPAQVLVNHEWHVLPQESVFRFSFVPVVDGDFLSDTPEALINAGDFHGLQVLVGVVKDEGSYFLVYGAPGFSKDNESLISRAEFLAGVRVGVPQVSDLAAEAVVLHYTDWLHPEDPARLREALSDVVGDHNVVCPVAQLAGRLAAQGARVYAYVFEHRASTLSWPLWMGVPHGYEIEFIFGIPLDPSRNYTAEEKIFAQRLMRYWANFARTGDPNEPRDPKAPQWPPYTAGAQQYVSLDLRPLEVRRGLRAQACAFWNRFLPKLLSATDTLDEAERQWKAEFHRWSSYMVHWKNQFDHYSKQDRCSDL

**Q.** For `Cc1ccc(C(C)C)cc1OCC(=O)N(C(C)C)C(C)C`, which IC50 is on record?
**A.** 1930 nM

Test system: Pseudomonas aeruginosa
Assay: Antibacterial activity against Pseudomonas aeruginosa ATCC 15442 assessed as reduction in bacterial growth incubated for 24 hrs by Mueller-Hinton agar based analysis
Assay type: functional

**Q.** With `CC(=O)N[C@@H](CS)C(=O)Oc1cc(C(C)C)ccc1C` as the compound, how does the MIC read?
**A.** 10 µg/mL (≈ 33.9 µM)

**Q.** With `C=CCSC[C@H](NC(C)=O)C(=O)Oc1cc(C(C)C)ccc1C` as the compound, how does the MIC read?
**A.** 5 µg/mL (≈ 14.9 µM)

**Q.** For `CSC[C@H](NC(C)=O)C(=O)Oc1cc(C(C)C)ccc1C`, which MIC is on record?
**A.** 10 µg/mL (≈ 32.3 µM)

**Q.** For `Cc1ccc(C(C)C)cc1OC(=O)CCCC[C@@H]1CCSS1`, which MIC is on record?
**A.** 5 µg/mL (≈ 14.8 µM)

**Q.** Which MIC does the source give for `C#CCSC[C@H](NC(C)=O)C(=O)Oc1cc(C(C)C)ccc1C` here?
**A.** 10 µg/mL (≈ 30 µM)

**Q.** Which MIC does the source give for `CCSC[C@H](NC(C)=O)C(=O)Oc1cc(C(C)C)ccc1C` here?
**A.** 10 µg/mL (≈ 30.9 µM)

**Q.** Which MIC does the source give for `Cc1ccc(C(C)C)cc1OC(=O)[C@@H]1CSC(=O)N1` here?
**A.** 10 µg/mL (≈ 35.8 µM)

**Q.** With `Cc1ccc(C(C)C)cc1OC(=O)[C@@H]1CSCN1C(=O)C(F)(F)F` as the compound, how does the MIC read?
**A.** 10 µg/mL (≈ 27.7 µM)

**Q.** With `C[Se]CC[C@H](NC(C)=O)C(=O)Oc1cc(C(C)C)ccc1C` as the compound, how does the MIC read?
**A.** 5 µg/mL (≈ 13.5 µM)

**Q.** Which MIC does the source give for `CSCC[C@H](NC(C)=O)C(=O)Oc1cc(C(C)C)ccc1C` here?
**A.** 5 µg/mL (≈ 15.5 µM)

**Q.** Which MIC does the source give for `Cc1ccc(C(C)C)cc1O` [CARVACROL] here?
**A.** 5 µg/mL (≈ 33.3 µM)

Test system: Clostridium perfringens
Assay: Antibacterial activity against Clostridium perfringens assessed as reduction in bacterial growth inhibition
Assay type: functional

**Q.** Which MIC does the source give for `CCCCCCCCCCCC(=O)Oc1cc(C(C)C)ccc1C` here?
**A.** <10 %v/v

**Q.** Which MIC does the source give for `Cc1cc(S(=O)(=O)[O-])c(C(C)C)cc1O.[K+]` here?
**A.** 0.37 %v/v

**Q.** For `Cc1cc(S(=O)(=O)O)c(C(C)C)cc1O`, which MIC is on record?
**A.** 0.37 %v/v

**Q.** Which MIC does the source give for `Cc1ccc(C(C)C)cc1O` [CARVACROL] here?
**A.** <0.09 %v/v

Test system: Escherichia coli
Assay: Antibacterial activity against Escherichia coli assessed as reduction in bacterial growth by broth microdilution method
Assay type: functional

**Q.** Which MIC does the source give for `Cc1ccc(C(C)C)cc1O` [CARVACROL] here?
**A.** 450 µg/mL (≈ 3000 µM)
